# Reference: US11584747B2, “Substituted pyridopyrimidinonyl compounds useful as T cell activators” (BRISTOL-MYERS SQUIBB COMPANY, priority 2019, dated 2023)
# Where two headings read alike, the source gives them in different places.
# Experiments:
# [1] = target: human DGKα (Homo sapiens (Human), UniProt P23743); assay: DGKα LIPGLO assay (extruded liposome substrate, ADP-Glo luminescence); format: biochemical; conditions: liposome assay; read-out: DGK alpha LIPGLO IC50
# [2] = target: human DGKζ (Homo sapiens (Human), UniProt Q13574); assay: DGKζ LIPGLO assay (extruded liposome substrate, ADP-Glo luminescence); format: biochemical; conditions: liposome assay; read-out: DGK zeta LIPGLO IC50
# [3] = tested on: human venous whole blood (IFN-γ); assay: Human whole blood IFN-γ assay; format: cell-based; conditions: whole blood, normalized to 3 μM reference compound as 100% activation, read-out: IFN-γ Whole Blood Normalized EC50
# Description: Human venous whole blood (22.5 μL per well), obtained from healthy donors, was pre-treated with compounds for one hour at 37° C. in a humidified 95% air/5% CO2 incubator. The blood was stimulated with 2.5 μL anti-human CD3 and anti-CD28 mAb at a final concentration of 1 μg/mL each for 24 hours at 37° C. IFN-γ in the supernatants was measured using AlphLISA kit (Cat #AL217).
# [4] = tested on: whole blood (pERK); assay: pERK Whole Blood assay (Table A; no whole-blood pERK method described); format: cell-based; conditions: normalized
# Sequence of human DGKζ (Q13574 other isoform, or with tags, fused parts or gaps): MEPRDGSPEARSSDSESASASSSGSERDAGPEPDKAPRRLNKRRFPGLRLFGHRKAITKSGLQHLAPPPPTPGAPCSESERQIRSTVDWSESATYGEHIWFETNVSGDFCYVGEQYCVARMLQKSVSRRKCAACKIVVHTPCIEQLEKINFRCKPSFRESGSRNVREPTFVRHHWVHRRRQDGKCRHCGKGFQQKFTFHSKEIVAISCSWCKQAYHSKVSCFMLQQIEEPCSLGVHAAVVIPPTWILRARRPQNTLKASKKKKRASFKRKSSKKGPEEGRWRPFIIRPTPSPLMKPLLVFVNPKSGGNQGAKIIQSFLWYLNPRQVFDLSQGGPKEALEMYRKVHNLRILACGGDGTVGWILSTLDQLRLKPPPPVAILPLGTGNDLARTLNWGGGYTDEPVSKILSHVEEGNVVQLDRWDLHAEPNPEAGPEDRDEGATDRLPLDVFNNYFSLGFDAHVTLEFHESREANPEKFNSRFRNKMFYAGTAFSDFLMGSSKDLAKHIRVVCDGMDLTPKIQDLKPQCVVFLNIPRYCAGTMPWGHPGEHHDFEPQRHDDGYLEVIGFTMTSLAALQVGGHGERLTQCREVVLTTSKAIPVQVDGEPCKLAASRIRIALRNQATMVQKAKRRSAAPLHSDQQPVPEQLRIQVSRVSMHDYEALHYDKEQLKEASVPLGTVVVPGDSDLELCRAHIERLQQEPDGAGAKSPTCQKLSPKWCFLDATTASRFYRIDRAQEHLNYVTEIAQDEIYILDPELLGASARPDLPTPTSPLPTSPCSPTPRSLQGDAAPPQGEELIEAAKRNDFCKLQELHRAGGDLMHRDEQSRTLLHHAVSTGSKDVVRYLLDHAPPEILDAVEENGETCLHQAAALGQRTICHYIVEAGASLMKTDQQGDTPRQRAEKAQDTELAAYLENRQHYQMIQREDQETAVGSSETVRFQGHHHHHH
# Sequence of human DGKα (P23743 whole entry, looked up): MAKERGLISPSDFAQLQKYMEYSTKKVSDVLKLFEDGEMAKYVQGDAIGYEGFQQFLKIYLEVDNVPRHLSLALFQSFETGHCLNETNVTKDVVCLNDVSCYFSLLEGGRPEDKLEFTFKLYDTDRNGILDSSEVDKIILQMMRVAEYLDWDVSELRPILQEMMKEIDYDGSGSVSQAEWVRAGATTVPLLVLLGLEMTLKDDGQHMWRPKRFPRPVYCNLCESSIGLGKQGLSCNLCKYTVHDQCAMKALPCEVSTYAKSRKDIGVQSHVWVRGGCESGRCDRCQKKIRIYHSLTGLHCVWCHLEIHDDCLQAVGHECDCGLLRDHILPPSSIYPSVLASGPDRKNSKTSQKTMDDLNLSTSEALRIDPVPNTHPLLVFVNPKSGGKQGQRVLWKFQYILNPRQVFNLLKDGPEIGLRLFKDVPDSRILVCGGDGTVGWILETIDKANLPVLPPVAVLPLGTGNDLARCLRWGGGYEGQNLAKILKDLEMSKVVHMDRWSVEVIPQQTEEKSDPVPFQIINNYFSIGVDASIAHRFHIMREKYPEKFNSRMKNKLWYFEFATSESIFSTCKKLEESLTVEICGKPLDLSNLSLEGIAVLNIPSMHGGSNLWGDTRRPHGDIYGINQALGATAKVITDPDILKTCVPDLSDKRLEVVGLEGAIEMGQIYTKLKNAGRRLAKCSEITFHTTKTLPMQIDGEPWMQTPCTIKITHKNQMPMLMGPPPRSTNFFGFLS
IC50 [1] [µM],IC50 [2] [µM],Compound,EC50 [3] [µM],IC50 [4] [µM],EC50 ([3]; Homo sapiens) [µM]
0.03,0.12,"CC[C@H]1CN(C(c2ccc(F)cc2)c2ccon2)[C@H](CC)CN1c1nc(=O)n(C)c2ccc(C#N)nc12 (single isomer, unassigned) [Example 35]",0.12,0.15,–
0.14,0.036,"CC[C@H]1CN(C(C)c2ccc(C(F)(F)F)cc2)[C@H](CC)CN1c1nc(=O)n(C)c2ccc(C#N)nc12 (single isomer, unassigned) [Example 20]",0.06,0.13,–
0.41,0.6,"CCC(c1ccc(OC(F)(F)F)cc1F)N1C[C@H](CC)N(c2nc(=O)n(C)c3ccc(C#N)nc23)C[C@H]1CC (single isomer, unassigned) [Example 12]",–,0.6,4.15
0.052,0.23,"CC(c1ccc(OC(F)(F)F)cc1F)N1C[C@H](C)N(c2nc(=O)n(C)c3ccc(C#N)nc23)C[C@H]1C (single isomer, unassigned) [Example 142]",–,0.1,3.65
0.038,0.46,"C[C@@H]1CN(c2nc(=O)n(C)c3ccc(C#N)nc23)[C@@H](C)CN1C(c1ccc(F)cc1)c1ccon1 (single isomer, unassigned) [Example 163]",0.25,0.49,–
0.029,0.14,"CC[C@@H]1CN(c2nc(=O)n(C)c3ccc(C#N)nc23)[C@@H](C)CN1C(c1ccc(F)cc1)c1ccon1 (single isomer, unassigned) [Example 73]",0.022,0.08,–
0.11,0.25,"CC(c1ccc(OC(F)(F)F)c(F)c1)N1C[C@H](C)N(c2nc(=O)n(C)c3ccc(C#N)nc23)C[C@H]1C (single isomer, unassigned) [Example 160]",0.24,0.86,–
8.29,0.042,"CC[C@H]1CN(C(c2ccc(F)cc2)c2nc(C3CC3)nn2C)[C@H](CC)CN1c1nc(=O)n(C)c2ccc(C#N)nc12 (single isomer, unassigned) [Example 294]",–,0.2,0.66
0.029,0.092,"CCC(c1ccc(OC(F)(F)F)cc1F)N1C[C@H](C)N(c2nc(=O)n(C)c3ccc(C#N)nc23)C[C@H]1C (single isomer, unassigned) [Example 152]",0.2,0.11,–
0.4,0.05,"C[C@@H]1CN(c2nc(=O)n(C)c3ccc(C#N)nc23)[C@@H](C)CN1C(c1ccc(F)cc1)c1nc(C(C)(C)C)no1 (single isomer, unassigned) [Example 108]",–,0.028,0.057
0.076,0.004,"CC[C@H]1CN(C(C)c2ccc(OC(F)(F)F)c(F)c2)[C@H](CC)CN1c1nc(=O)n(C)c2ccc(C#N)nc12 (single isomer, unassigned) [Example 30]",0.023,0.059,–
4.56,1.18,"CC(c1ccc(F)c(F)c1)N1C[C@H](C)N(c2nc(=O)n(C)c3ccc(C#N)nc23)C[C@H]1C (single isomer, unassigned) [Example 149]",8.06,1.95,–
0.028,0.046,"CC(c1ccc(F)cc1F)N1C[C@H](C)N(c2nc(=O)n(C)c3ccc(C#N)nc23)C[C@H]1C (single isomer, unassigned) [Example 144]",–,0.065,–
3.46,0.83,"CC(c1ccc(C(F)(F)F)cc1F)N1C[C@H](C)N(c2nc(=O)n(C)c3ccc(C#N)nc23)C[C@H]1C (single isomer, unassigned) [Example 151]",–,1.87,–
1.13,1.89,"CC(c1ccc(F)cc1F)N1C[C@H](C)N(c2nc(=O)n(C)c3ccc(C#N)nc23)C[C@H]1C (single isomer, unassigned) [Example 145]",–,0.75,20
0.18,0.11,"COC[C@@H]1CN(c2nc(=O)n(C)c3ccc(C#N)nc23)[C@@H](C)CN1C(C)c1ccc(OC(F)(F)F)cc1 (single isomer, unassigned) [Example 176]",0.19,0.21,–
0.04,0.01,"CC[C@H]1CN(C(C)c2ccc(C3CC3)cc2)[C@H](CC)CN1c1nc(=O)n(C)c2ccc(C#N)nc12 (single isomer, unassigned) [Example 29]",0.027,0.1,–
0.01,0.13,"CC(c1ccc(OC(F)(F)F)cc1)N1C[C@H](C)N(c2nc(=O)n(C)c3ccc(C#N)nc23)C[C@H]1C (single isomer, unassigned) [Example 131]",0.36,0.17,–
0.33,1.38,"CC(c1ccc(OC(F)F)cc1)N1C[C@H](C)N(c2nc(=O)n(C)c3ccc(C#N)nc23)C[C@H]1C (single isomer, unassigned) [Example 157]",–,4.36,1.42
0.037,0.027,"CC[C@@H]1CN(c2nc(=O)n(C)c3ccc(C#N)nc23)[C@@H](C)CN1C(c1ccc(F)cc1)c1nc(C2CC2)cs1 (single isomer, unassigned) [Example 51]",–,0.009,0.006
0.16,2.47,"CC[C@H]1CN(C(c2ccc(F)cc2)c2ccc(C(F)(F)F)cn2)[C@H](C)CN1c1nc(=O)n(C)c2ccc(C#N)nc12 (stereo partly drawn) [Example 115, 4-((2S,5R)-2-ethyl-4-((4-fluorophenyl)(5-(trifluoromethyl)pyridin-2-yl)methyl)-5-methylpiperazin-1-yl)-1-methyl-2-oxo-1,2-dihydropyrido[3,2-d]pyrimidine-6-carbonitrile]",0.23,0.52,–
0.016,0.048,"CC[C@@H]1CN(c2nc(=O)n(C)c3ccc(C#N)nc23)[C@@H](C)CN1C(C)c1ccc(OC(F)(F)F)cc1 (single isomer, unassigned) [Example 48]",0.018,0.025,–
0.034,0.19,"C[C@@H]1CN(c2nc(=O)n(C)c3ccc(C#N)nc23)[C@@H](C)CN1C(c1ccc(F)cc1)c1nc(C(C)(C)C)no1 (single isomer, unassigned) [Example 109]",0.11,0.048,–
0.016,0.036,"CC[C@H]1CN(C(c2ccc(F)cc2)c2ccc(C(F)(F)F)cn2)[C@H](CC)CN1c1nc(=O)n(C)c2ccc(C#N)nc12 (single isomer, unassigned) [Example 1]",0.027,1.04,–
0.002,0.002,"CC[C@H]1CN(C(C)c2ccc(C(F)(F)F)cc2)[C@H](C)CN1c1nc(=O)n(C)c2ccc(C#N)nc12 (stereo partly drawn) [Example 117, 4-((2S,5R)-2-ethyl-5-methyl-4-(1-(4-(trifluoromethyl)phenyl)ethyl)piperazin-1-yl)-1-methyl-2-oxo-1,2-dihydropyrido[3,2-d]pyrimidine-6-carbonitrile]",0.16,0.78,–
1.46,1.13,"CC(c1ccc(Cl)cc1F)N1C[C@H](C)N(c2nc(=O)n(C)c3ccc(C#N)nc23)C[C@H]1C (single isomer, unassigned) [Example 147]",–,1,–
